Experimental data taken from patent US11304946B2, “2-hetarylpyrimidine-4-carboxamides as aryl hydrocarbon receptor antagonists” (Bayer Aktiengesellschaft, priority 2017, dated 2022).

Experiments:
Mouse AhR = target: T1, Mouse AhR (Mus musculus, UniProt P30561); experiment: Transactivation assay in mouse cell line (in vitro assay 2: antagonism); type: cell-based; conditions: Hepa 1c1c7 cells, AHR inducible (DRE) firefly luciferase reporter, 200 μM kynurenic acid, 20 hours
T1 sequence (P30561 1-848): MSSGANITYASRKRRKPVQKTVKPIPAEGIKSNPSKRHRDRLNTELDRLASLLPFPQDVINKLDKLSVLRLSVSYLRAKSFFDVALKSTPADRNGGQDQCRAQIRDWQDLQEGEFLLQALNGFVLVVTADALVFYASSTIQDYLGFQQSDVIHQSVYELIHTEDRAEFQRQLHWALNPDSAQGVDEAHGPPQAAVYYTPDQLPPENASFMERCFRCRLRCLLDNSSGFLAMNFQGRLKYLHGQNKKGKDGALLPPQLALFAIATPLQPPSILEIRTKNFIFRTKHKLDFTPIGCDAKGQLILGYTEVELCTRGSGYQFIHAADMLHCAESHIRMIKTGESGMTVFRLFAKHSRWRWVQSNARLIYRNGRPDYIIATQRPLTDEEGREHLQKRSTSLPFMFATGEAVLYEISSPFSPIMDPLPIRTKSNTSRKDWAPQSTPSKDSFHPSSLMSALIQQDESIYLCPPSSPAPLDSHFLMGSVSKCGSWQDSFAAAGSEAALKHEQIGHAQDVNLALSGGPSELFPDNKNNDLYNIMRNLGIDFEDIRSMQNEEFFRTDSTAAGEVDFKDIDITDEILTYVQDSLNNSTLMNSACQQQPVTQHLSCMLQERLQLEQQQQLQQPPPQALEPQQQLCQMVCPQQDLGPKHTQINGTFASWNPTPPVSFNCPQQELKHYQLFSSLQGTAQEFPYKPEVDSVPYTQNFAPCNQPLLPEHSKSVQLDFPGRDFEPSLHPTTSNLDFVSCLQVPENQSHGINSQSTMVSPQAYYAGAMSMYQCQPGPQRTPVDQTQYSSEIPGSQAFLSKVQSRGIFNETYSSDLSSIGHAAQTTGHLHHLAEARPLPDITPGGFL
Description: Transactivation Assay in Mouse Cell Line (In Vitro Assay 2)
Transactivation assay was carried out in Hepa 1c1c7 cells (ATCC #CRL-2026) endogenously expressing AHR. In addition the cells were stably transfected with an AHR inducible firefly luciferase reporter gene construct that carried AHR-binding sites (DRE) in its promoter. Kynurenic acid is an endogenous AHR activating ligand and was used to prestimulate test cells prior to testing the antagonistic properties of compounds.
In Vitro Assay 2: Antagonism in Mouse Cell Line
Firefly luciferase activity was determined by the SteadyGlo Luciferase Assay System (Promega, #E2550).

Human AhR = target: T2, Human AhR (Homo sapiens, UniProt P35869); experiment: Transactivation assay in human cell line (in vitro assay 1: antagonism); type: cell-based; conditions: U87 glioblastoma cells, AHR inducible (DRE) firefly luciferase reporter, 150 μM kynurenic acid, 20 hours
T2 construct: host or cells: U87 glioblastoma cells, stably transfected with DRE-driven firefly luciferase and constitutive renilla reporter constructs
T2 sequence (P35869 11-848): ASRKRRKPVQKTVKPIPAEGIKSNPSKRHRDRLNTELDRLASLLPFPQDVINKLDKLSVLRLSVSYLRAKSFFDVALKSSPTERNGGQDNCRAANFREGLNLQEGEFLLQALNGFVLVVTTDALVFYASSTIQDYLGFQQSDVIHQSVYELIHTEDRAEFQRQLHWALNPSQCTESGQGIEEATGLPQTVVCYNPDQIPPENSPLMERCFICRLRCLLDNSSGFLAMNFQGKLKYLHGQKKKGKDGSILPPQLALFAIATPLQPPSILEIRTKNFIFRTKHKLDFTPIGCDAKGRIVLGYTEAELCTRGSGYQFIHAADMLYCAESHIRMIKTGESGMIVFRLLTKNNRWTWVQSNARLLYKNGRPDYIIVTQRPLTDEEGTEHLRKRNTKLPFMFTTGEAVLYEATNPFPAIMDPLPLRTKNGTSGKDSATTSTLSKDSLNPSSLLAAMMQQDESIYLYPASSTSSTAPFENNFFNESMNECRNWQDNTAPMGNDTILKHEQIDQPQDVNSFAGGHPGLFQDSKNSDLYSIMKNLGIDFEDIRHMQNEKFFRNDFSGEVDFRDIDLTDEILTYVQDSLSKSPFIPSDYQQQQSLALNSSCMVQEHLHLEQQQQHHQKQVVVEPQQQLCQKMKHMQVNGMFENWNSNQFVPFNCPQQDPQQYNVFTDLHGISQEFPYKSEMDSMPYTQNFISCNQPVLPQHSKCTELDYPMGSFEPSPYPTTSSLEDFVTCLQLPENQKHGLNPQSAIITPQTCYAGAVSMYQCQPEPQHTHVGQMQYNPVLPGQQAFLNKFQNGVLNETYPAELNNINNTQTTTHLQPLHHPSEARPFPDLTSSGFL
In short: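 U87 glioblastoma cells with endogenous AHR, stably carrying DRE-driven firefly luciferase and constitutive Renilla reporters, prestimulated with kynurenic acid before compound. Dual luciferase read-out; Renilla signal used to flag toxicity.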

IC50 (Mouse AhR) [nM] | IC50 (Human AhR) [nM] | Structure (SMILES)
1420 | 64.7 | Cc1ccc(-c2nc(C(=O)NCC(C)(C)O)cc(-c3ccc(Cl)cc3)n2)cn1 [Example 60, 6-(4-chlorophenyl)-N-(2-hydroxy-2-methylpropyl)-2-(6-methylpyridin-3-yl)pyrimidine-4-carboxamide]
9830 | 7240 | CC(C)(O)CNC(=O)c1cc(-c2ccc(Cl)cc2)nc(-c2cnn(C3CC3)c2)n1 [Example 68, 6-(4-chlorophenyl)-2-(1-cyclopropyl-1H-pyrazol-4-yl)-N-(2-hydroxy-2-methylpropyl)pyrimidine-4-carboxamide]
295 | 94.2 | C[C@@H](CO)NC(=O)c1cc(-c2ccc(Cl)cc2)nc(-c2ccc(C#N)s2)n1 [Example 70, 6-(4-chlorophenyl)-2-(5-cyanothiophen-2-yl)-N-[(2S)-1-hydroxypropan-2-yl]pyrimidine-4-carboxamide]
4.71 | 3.23 | Cc1cscc1-c1nc(C(=O)N[C@@H](C)CO)cc(-c2ccc(Cl)cc2)n1 [Example 71, 6-(4-chlorophenyl)-N-[(2S)-1-hydroxypropan-2-yl]-2-(4-methylthiophen-3-yl)pyrimidine-4-carboxamide]
98.2 | 32.6 | C[C@@H](CO)NC(=O)c1cc(-c2ccc(Cl)cc2)nc(-c2ccc(Cl)s2)n1 [Example 72, 6-(4-chlorophenyl)-2-(5-chlorothiophen-2-yl)-N-[(2S)-1-hydroxypropan-2-yl]pyrimidine-4-carboxamide]
28.8 | 16.3 | Cc1ccsc1-c1nc(C(=O)N[C@@H](C)CO)cc(-c2ccc(Cl)cc2)n1 [Example 73, 6-(4-chlorophenyl)-N-[(2S)-1-hydroxypropan-2-yl]-2-(3-methylthiophen-2-yl)pyrimidine-4-carboxamide]
62.9 | 33.6 | C[C@@H](CO)NC(=O)c1cc(-c2ccc(Cl)cc2)nc(-c2ccnn2C)n1 [Example 74, 6-(4-chlorophenyl)-N-[(2S)-1-hydroxypropan-2-yl]-2-(1-methyl-1H-pyrazol-5-yl)pyrimidine-4-carboxamide]
21.2 | 6.37 | C[C@@H](CO)NC(=O)c1cc(-c2ccc(Cl)cc2)nc(-c2cncnc2)n1 [Example 75, 6-(4-chlorophenyl)-N-[(2S)-1-hydroxypropan-2-yl][2,5′-bipyrimidine]-4-carboxamide]
671 | 108 | Cc1ccc(-c2nc(C(=O)N[C@@H](C)CO)cc(-c3ccc(Cl)cc3)n2)cn1 [Example 79, 6-(4-chlorophenyl)-N-[(2S)-1-hydroxypropan-2-yl]-2-(6-methylpyridin-3-yl)pyrimidine-4-carboxamide]
30.8 | 2.64 | COc1ccncc1-c1nc(C(=O)N[C@@H](C)CO)cc(-c2ccc(Cl)cc2)n1 [Example 80, 6-(4-chlorophenyl)-N-[(2S)-1-hydroxypropan-2-yl]-2-(4-methoxypyridin-3-yl)pyrimidine-4-carboxamide]
1510 | 54.2 | Cc1nn(C)cc1-c1nc(C(=O)N[C@@H](C)CO)cc(-c2ccc(Cl)cc2)n1 [Example 83, 6-(4-chlorophenyl)-2-(1,3-dimethyl-1H-pyrazol-4-yl)-N-[(2S)-1-hydroxypropan-2-yl]pyrimidine-4-carboxamide]
7400 | 1200 | C[C@@H](CO)NC(=O)c1cc(-c2ccc(Cl)cc2)nc(-c2cnn(C3CC3)c2)n1 [Example 85, 6-(4-chlorophenyl)-2-(1-cyclopropyl-1H-pyrazol-4-yl)-N-[(2S)-1-hydroxypropan-2-yl]pyrimidine-4-carboxamide]
8.19 | 20.4 | Cn1cc(-c2nc(C(=O)N[C@H](CO)C(C)(C)C)cc(-c3ccc(OC(F)(F)F)cc3)n2)cn1 [Example 88, N-[(2S)-1-hydroxy-3,3-dimethylbutan-2-yl]-2-(1-methyl-1H-pyrazol-4-yl)-6-[4-(trifluoromethoxy)phenyl]pyrimidine-4-carboxamide]
4.34 | 7.95 | Cn1cc(-c2nc(C(=O)NC(CO)(CO)C(F)(F)F)cc(-c3ccc(OC(F)(F)F)cc3)n2)cn1 [Example 89, 2-(1-methyl-1H-pyrazol-4-yl)-N-[1,1,1-trifluoro-3-hydroxy-2-(hydroxymethyl)propan-2-yl]-6-[4-(trifluoromethoxy)phenyl]pyrimidine-4-carboxamide]
16.5 | 34.1 | Cn1cc(-c2nc(C(=O)NC(CO)Cc3cccnc3)cc(-c3ccc(OC(F)(F)F)cc3)n2)cn1 (stereo not drawn) [Example 93, N-[1-hydroxy-3-(pyridin-3-yl)propan-2-yl]-2-(1-methyl-1H-pyrazol-4-yl)-6-[4-(trifluoromethoxy)phenyl]pyrimidine-4-carboxamide]
24.3 | 5.44 | Cn1cc(-c2nc(C(=O)NC(CO)C3CCC3)cc(-c3ccc(OC(F)(F)F)cc3)n2)cn1 (stereo not drawn) [Example 94, N-(1-cyclobutyl-2-hydroxyethyl)-2-(1-methyl-1H-pyrazol-4-yl)-6-[4-(trifluoromethoxy)phenyl]pyrimidine-4-carboxamide]
4 | 3.48 | Cn1cc(-c2nc(C(=O)N[C@H](CO)CF)cc(-c3ccc(OC(F)(F)F)cc3)n2)cn1 [Example 95, N-[(2R)-1-fluoro-3-hydroxypropan-2-yl]-2-(1-methyl-1H-pyrazol-4-yl)-6-[4-(trifluoromethoxy)phenyl]pyrimidine-4-carboxamide]
21.5 | 17.6 | Cn1cc(-c2nc(C(=O)N[C@H](CO)C3CC3)cc(-c3ccc(OC(F)(F)F)cc3)n2)cn1 [Example 99, N-[(1S)-1-cyclopropyl-2-hydroxyethyl]-2-(1-methyl-1H-pyrazol-4-yl)-6-[4-(trifluoromethoxy)phenyl]pyrimidine-4-carboxamide]
18.9 | 22.3 | Cn1cc(-c2nc(C(=O)N[C@@H](C#N)CO)cc(-c3ccc(OC(F)(F)F)cc3)n2)cn1 [Example 101, N-[(1S)-1-cyano-2-hydroxyethyl]-2-(1-methyl-1H-pyrazol-4-yl)-6-[4-(trifluoromethoxy)phenyl]pyrimidine-4-carboxamide]
3.26 | 6.86 | C[C@H](NC(=O)c1cc(-c2ccc(OC(F)(F)F)cc2)nc(-c2cnn(C)c2)n1)C(C)(C)O [Example 102, N-[(2S)-3-hydroxy-3-methylbutan-2-yl]-2-(1-methyl-1H-pyrazol-4-yl)-6-[4-(trifluoromethoxy)phenyl]pyrimidine-4-carboxamide]
5.82 | 6.74 | Cn1cc(-c2nc(C(=O)N[C@H]3COC[C@H]3O)cc(-c3ccc(OC(F)(F)F)cc3)n2)cn1 [Example 103, N-[(3S,4S)-4-hydroxytetrahydrofuran-3-yl]-2-(1-methyl-1H-pyrazol-4-yl)-6-[4-(trifluoromethoxy)phenyl]pyrimidine-4-carboxamide]
